Like-named read-outs stand apart in the source and are kept apart here. Bridge positions count the residues as written; N and C are the ends. Square brackets hold non-standard residues; d marks the D form. Peptide text beside a SMILES is read from it. Pen = CC(C)(S)[C@H](N)C(=O)O; Nle = CCCC[C@H](N)C(=O)O; GABA = NCCCC(=O)O
Assays:
hMC3-R [1] = target: T1, hMC3-R (Homo sapiens, UniProt P41968); assay: Radioligand binding assay, [125I]-NDP-α-MSH competition, CHO-K1 membranes
T1 construct: expressed in transfected cells; host or cells: CHO-K1
T1 sequence (P41968 whole entry): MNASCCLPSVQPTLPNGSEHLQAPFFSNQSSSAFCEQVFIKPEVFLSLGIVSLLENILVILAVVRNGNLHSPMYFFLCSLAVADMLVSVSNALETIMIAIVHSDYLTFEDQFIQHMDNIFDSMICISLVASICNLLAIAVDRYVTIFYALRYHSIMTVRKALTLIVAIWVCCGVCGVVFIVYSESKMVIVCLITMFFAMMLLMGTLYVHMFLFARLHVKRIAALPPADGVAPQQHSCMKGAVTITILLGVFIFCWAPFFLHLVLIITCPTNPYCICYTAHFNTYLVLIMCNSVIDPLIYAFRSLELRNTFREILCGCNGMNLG
Procedure: (§1) Cellular membranes used for the in vitro receptor binding assays were obtained from transgenic CHO-K1 cells stably expressing hMC-R receptor subtypes 1, 3, 4 or 5. […] The pellets were resuspended in the same buffer and centrifuged at 50,000 g for 10 minutes at approximately 4° C. The washed pellets containing the cellular membranes were stored at approximately −80° C.
(§2) Cell membranes (1-10 μg protein/well) prepared as described above were incubated in 50 mM Tris-HCl at pH 7.4 containing 0.2% bovine serum albumin (BSA), 5 mM MgCl2, 1 mM CaCl2 and 0.1 mg/mL bacitracin, with increasing concentrations of the test compound and 0.1-0.3 nM [^25I]-NDP-α-MSH for approximately 90-120 minutes at approximately 37° C. […] Filters were washed three times with 50 mM Tris-HCl at pH 7.4 at a temperature of approximately 0-4° C. and then assayed for radioactivity using a Packard Topcount® scintillation counter. Binding data were analyzed by computer-assisted non-linear regression analysis (XL fit; IDBS).

hMC1-R [2] = target: T2, hMC1-R (Homo sapiens, UniProt Q01726); assay: cyclic AMP bioassay (ECL) in CHO-K1 cells; assay type: cell-based
T2 construct: expressed in transfected cells; host or cells: CHO-K1
T2 sequence (Q01726 whole entry): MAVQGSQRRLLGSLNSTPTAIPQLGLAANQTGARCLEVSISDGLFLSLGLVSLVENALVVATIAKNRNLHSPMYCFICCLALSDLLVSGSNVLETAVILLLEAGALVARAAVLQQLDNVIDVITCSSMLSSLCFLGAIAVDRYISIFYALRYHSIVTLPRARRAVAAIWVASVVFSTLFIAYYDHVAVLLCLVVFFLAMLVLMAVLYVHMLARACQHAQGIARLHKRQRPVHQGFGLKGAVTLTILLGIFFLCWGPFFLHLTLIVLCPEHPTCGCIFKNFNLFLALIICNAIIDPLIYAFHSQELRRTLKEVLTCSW

hMC3-R [3] = target: T1, hMC3-R; assay: cyclic AMP bioassay (ECL) in CHO-K1 cells; assay type: cell-based
hMC4-R = target: T3, hMC4-R (Homo sapiens, UniProt P32245); assay: cyclic AMP bioassay (ECL) in CHO-K1 cells; assay type: cell-based
T3 construct: expressed in transfected cells; host or cells: CHO-K1
T3 sequence (P32245 whole entry): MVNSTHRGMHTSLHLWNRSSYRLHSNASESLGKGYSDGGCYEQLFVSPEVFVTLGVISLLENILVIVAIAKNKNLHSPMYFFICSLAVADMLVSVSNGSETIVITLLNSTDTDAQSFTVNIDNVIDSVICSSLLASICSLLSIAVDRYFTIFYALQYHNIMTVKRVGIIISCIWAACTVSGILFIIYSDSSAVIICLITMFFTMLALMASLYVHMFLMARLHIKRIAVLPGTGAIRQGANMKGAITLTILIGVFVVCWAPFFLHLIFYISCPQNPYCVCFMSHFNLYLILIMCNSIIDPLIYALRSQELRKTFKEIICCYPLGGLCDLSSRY

hMC5-R [4] = target: T4, hMC5-R (Homo sapiens, UniProt P33032); assay: cyclic AMP bioassay (ECL) in CHO-K1 cells; assay type: cell-based
T4 construct: expressed in transfected cells; host or cells: CHO-K1
T4 sequence (P33032 whole entry): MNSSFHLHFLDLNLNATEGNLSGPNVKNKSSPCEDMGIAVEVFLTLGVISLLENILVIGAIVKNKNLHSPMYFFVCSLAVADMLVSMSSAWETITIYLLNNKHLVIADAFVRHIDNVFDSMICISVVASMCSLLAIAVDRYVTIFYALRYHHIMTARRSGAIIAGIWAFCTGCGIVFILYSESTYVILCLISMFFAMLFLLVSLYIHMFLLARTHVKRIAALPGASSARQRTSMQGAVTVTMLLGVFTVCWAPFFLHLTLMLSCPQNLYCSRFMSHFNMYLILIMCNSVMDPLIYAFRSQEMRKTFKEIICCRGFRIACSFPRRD

hMC1-R [5] = target: T2, hMC1-R; assay: Radioligand binding assay, [125I]-NDP-α-MSH competition, CHO-K1 membranes
Procedure: as §1, §2

hMC5-R [6] = target: T4, hMC5-R; assay: as above
Procedure: as §1, §2

[7] = Table 9A/9B, read-out: EC50 hMC1-R
[8] = Table 9A/9B, read-out: EC50 hMC3-R
[9] = Table 9A/9B, read-out: EC50 hMC4-R
[10] = Table 9A/9B, read-out: EC50 hMC5-R

| Compound | Ki (hMC1-R [5]; Table 5, read-out: Ki hMC1-R) [nM] | EC50 (hMC1-R [2]; [7]) [nM] | EC50 (hMC3-R [3]; [8]) [nM] | EC50 (hMC4-R; [9]) [nM] | EC50 (hMC5-R [4]; [10]) [nM] | further results |
| --- | --- | --- | --- | --- | --- | --- |
| CC(=O)N[C@H]1CSSC[C@@H](C(=O)N2CCC[C@H]2C(=O)N2CCC[C@H]2C(=O)N[C@@H](CCCCN)C(=O)N[C@@H](CC(=O)O)C(=O)NCCC(=O)N[C@@H](CCCNC(=N)N)C(=O)N[C@@H](CCCNC(=N)N)C(=O)N[C@@H](CCCNC(=N)N)C(=O)N[C@@H](CCCNC(=N)N)C(=O)N[C@@H](CCCNC(=N)N)C(=O)N[C@@H](CCCNC(=N)N)C(=O)N[C@@H](CCC(N)=O)C(=O)N[C@@H](CCCNC(=N)N)C(=O)N[C@@H](CCCNC(=N)N)C(=O)N[C@@H](CCCNC(=N)N)C(N)=O)NC(=O)[C@H](C)NC(=O)[C@H](Cc2csc3ccccc23)NC(=O)[C@H](CCCNC(=N)N)NC(=O)[C@@H](Cc2ccc3ccccc3c2)NC(=O)[C@H](Cc2c[nH]cn2)NC(=O)[C@H](CCC(=O)O)NC1=O | – | – | – | – | – | Ki (hMC3-R [1]; Ki hMC3-R, Table 6): 14.3 nM; EC50 (hMC1-R [2]): 68.6 nM; Kb (hMC3-R [3]): 153 nM; Kb (hMC4-R): 33.2 nM; EC50 (hMC5-R [4]): > 10000 nM |
| CCCC[C@H](NC(C)=O)C(=O)N[C@H]1CSSC[C@@H](C(N)=O)NC(=O)CCNC(=O)[C@@H](Cc2c[nH]c3ccccc23)NC(=O)[C@H](CCCNC(=N)N)NC(=O)[C@@H](Cc2ccccc2)NC(=O)[C@H](Cc2c[nH]cn2)NC1=O [Ac-Nle-c(Cys-His-D-Phe-Arg-D-Trp-β-Ala-Cys)-NH2] | 0.323 | – | – | – | – | – |
| N=C(N)NCCC[C@@H]1NC(=O)[C@@H](Cc2ccccc2)NC(=O)[C@H](Cc2c[nH]cn2)NC(=O)[C@@H](NC(=O)[C@@H](N)Cc2ccccc2)CSSC[C@@H](C(N)=O)NC(=O)CCCNC(=O)[C@H](Cc2c[nH]c3ccccc23)NC1=O [Phe-c(Cys-His-D-Phe-Arg-Trp-Gaba-Cys)-NH2] (H-FCH[dF]RW[GABA]C-NH2; disulfide 2-8) | – | – | – | – | – | Ki (hMC3-R [1]; Table 5, read-out: Ki hMC3-R): 15.2 nM |
| CCCC[C@H](NC(C)=O)C(=O)N[C@H]1CSSC[C@@H](C(N)=O)NC(=O)[C@H](Cc2c[nH]c3ccccc23)NC(=O)[C@H](CCCNC(=N)N)NC(=O)[C@@H](Cc2ccccc2)NC(=O)[C@H](Cc2c[nH]cn2)NC(=O)[C@@H](CC2CCCCC2)NC1=O [Ac-Nle-c(Cys-D-Cha-His-D-Phe-Arg-Trp-Cys)-NH2] | – | 0.819 | 0.541 | 0.453 | 45.3 | Ki (hMC3-R [1]; Table 5, read-out: Ki hMC3-R): 2.08 nM |
| CCCC[C@H](NC(C)=O)C(=O)N[C@H]1CSSC[C@@H](C(N)=O)NC(=O)[C@H](Cc2c[nH]c3ccccc23)NC(=O)[C@H](CCCNC(=N)N)NC(=O)[C@@H](Cc2ccccc2)NC(=O)[C@H](Cc2c[nH]cn2)NC(=O)[C@@H](C(C)(C)C)NC1=O [Ac-Nle-c(Cys-D-Tle-His-D-Phe-Arg-Trp-Cys)-NH2] | 12 | – | – | – | – | Ki (hMC5-R [6]; Table 5, read-out: Ki hMC5-R): 40 nM |
| CC(=O)N[C@H](CCCNC(=N)N)C(=O)N[C@H]1CSSC(C)(C)[C@@H](C(N)=O)NC(=O)CCCNC(=O)[C@H](Cc2c[nH]c3ccccc23)NC(=O)[C@H](CCCNC(=N)N)NC(=O)[C@@H](Cc2ccccc2)NC(=O)[C@H](Cc2c[nH]cn2)NC1=O [Ac-D-Arg-c(Cys-His-D-Phe-Arg-Trp-Gaba-Pen)-NH2] (Ac-[dR]CH[dF]RW[GABA][Pen]-NH2; disulfide 2-8 (inferred)) | 3.93 | 8.43 | 32.4 | 0.959 | 2140 | – |
| CC(=O)N[C@H](C(=O)N[C@H]1CSSC[C@@H](C(N)=O)NC(=O)CCCNC(=O)[C@H](Cc2c[nH]c3ccccc23)NC(=O)[C@H](CCCNC(=N)N)NC(=O)[C@@H](Cc2ccccc2)NC(=O)[C@H](Cc2c[nH]cn2)NC1=O)C(C)C [Ac-Val-c(Cys-His-D-Phe-Arg-Trp-Gaba-Cys)-NH2] (Ac-VCH[dF]RW[GABA]C-NH2; disulfide 2-8 (inferred)) | 0.256 | – | – | – | – | – |
| CC(=O)N[C@H]1CSSC[C@@H](C(=O)N2CCC[C@H]2C(=O)N2CCC[C@H]2C(=O)N[C@@H](CCCCN)C(=O)N[C@@H](CC(=O)O)C(=O)NCCC(=O)N[C@@H](Cc2ccc(O)cc2)C(=O)NCC(=O)N[C@@H](CCCNC(=N)N)C(=O)N[C@@H](CCCCN)C(=O)N[C@@H](CCCNC(=N)N)C(=O)N[C@@H](CCCNC(=N)N)C(=O)N[C@@H](CCCNC(=N)N)C(=O)N[C@@H](CCC(N)=O)C(=O)N[C@@H](CCCNC(=N)N)C(=O)N[C@@H](CCCNC(=N)N)C(=O)N[C@@H](CCCNC(=N)N)C(N)=O)NC(=O)[C@H](C)NC(=O)[C@H](Cc2csc3ccccc23)NC(=O)[C@H](CCCNC(=N)N)NC(=O)[C@@H](Cc2ccc3ccccc3c2)NC(=O)[C@H](Cc2c[nH]cn2)NC(=O)[C@H](CCC(=O)O)NC1=O | – | – | – | – | – | Ki (hMC3-R [1]; Ki hMC3-R, Table 6): 1.12 nM; EC50 (hMC1-R [2]): 11.2 nM; Kb (hMC3-R [3]): 52.1 nM; Kb (hMC4-R): 9.45 nM; EC50 (hMC5-R [4]): 95.7 nM |
| CCCC[C@H](NC(C)=O)C(=O)N[C@H]1CC(=O)NCCCC[C@@H](C(N)=O)NC(=O)CCNC(=O)[C@H](Cc2c[nH]c3ccccc23)NC(=O)[C@H](CCCNC(=N)N)NC(=O)[C@@H](Cc2ccc3ccccc3c2)NC(=O)[C@H](Cc2c[nH]cn2)NC1=O [Ac-Nle-c(Asp-His-D-2-Nal-Arg-Trp-β-Ala-Lys)-NH2] | 0.648 | – | – | – | – | EC50 (hMC1-R [2]; Table 9C/9D, read-out: EC50 hMC1-R): 0.913 nM |
| CCCC[C@H](N)C(=O)N[C@H]1CSSC[C@@H](C(N)=O)NC(=O)CCCNC(=O)[C@H](Cc2c[nH]c3ccccc23)NC(=O)[C@H](CCCNC(=N)N)NC(=O)[C@@H](Cc2ccccc2)NC(=O)[C@H](Cc2c[nH]cn2)NC1=O [Nle-c(Cys-His-D-Phe-Arg-Trp-Gaba-Cys)-NH2] (H-[Nle]CH[dF]RW[GABA]C-NH2; disulfide 2-8) | 0.05 | 0.37 | 0.1 | 0.021 | 1.7 | – |
| CC(=O)N[C@H](CCCNC(=N)N)C(=O)N[C@H]1CC(=O)NCCCC[C@@H](C(N)=O)NC(=O)[C@H](C)NC(=O)[C@H](Cc2c[nH]c3ccccc23)NC(=O)[C@H](CCCNC(=N)N)NC(=O)[C@@H](Cc2ccccc2)NC(=O)[C@H](Cc2c[nH]cn2)NC1=O [Ac-D-Arg-c(Asp-His-D-Phe-Arg-Trp-Ala-Lys)-NH2] | 0.79 | 1.48 | 5.76 | 0.078 | 297 | – |
| CC(=O)N[C@@H](CCCNC(=N)N)C(=O)N[C@H]1CSSC(C)(C)[C@@H](C(N)=O)NC(=O)CCCNC(=O)[C@H](Cc2c[nH]c3ccccc23)NC(=O)[C@H](CCCNC(=N)N)NC(=O)[C@@H](Cc2ccccc2)NC(=O)[C@H](Cc2c[nH]cn2)NC1=O [Ac-Arg-c(Cys-His-D-Phe-Arg-Trp-Gaba-Pen)-NH2] (Ac-RCH[dF]RW[GABA][Pen]-NH2; disulfide 2-8 (inferred)) | 1.81 | 4.23 | 8.09 | 0.719 | 23.2 | – |
| CCCC[C@@H]1NC(=O)N(CC(=O)N[C@H]2CSSC[C@@H](C(N)=O)NC(=O)[C@H](Cc3c[nH]c4ccccc34)NC(=O)[C@H](CCCNC(=N)N)NC(=O)[C@@H](Cc3ccccc3)NC(=O)[C@H](Cc3cnc[nH]3)NC(=O)[C@H](CCC(=O)O)NC2=O)C1=O [Hydantoin(C(O)-(Nle-Gly))-c(Cys-Glu-His-D-Phe-Arg-Trp-Cys)-NH2] | – | – | – | – | – | Ki (hMC1-R [5]; Table 7, read-out: Ki hMC1): 14.3 nM; EC50 (hMC1-R [2]; Table 11, read-out: EC50 hMC1): 54.3 nM; EC50 (hMC3-R [3]; Table 11, read-out: EC50 hMC3): 12.2 nM; EC50 (hMC4-R; Table 11, read-out: EC50 hMC4): 0.177 nM |
| CC(=O)N[C@@H](CC(C)C)C(=O)N[C@H]1CSSC[C@@H](C(N)=O)NC(=O)CCCNC(=O)[C@H](Cc2c[nH]c3ccccc23)NC(=O)[C@H](CCCNC(=N)N)NC(=O)[C@@H](Cc2ccccc2)NC(=O)[C@H](Cc2c[nH]cn2)NC1=O [Ac-Leu-c(Cys-His-D-Phe-Arg-Trp-Gaba-Cys)-NH2] (Ac-LCH[dF]RW[GABA]C-NH2; disulfide 2-8 (inferred)) | – | – | – | – | – | Ki (hMC3-R [1]; Table 5, read-out: Ki hMC3-R): 17.4 nM |
| CC(=O)N[C@H]1CSSC[C@@H](C(=O)N2CCC[C@H]2C(=O)N2CCC[C@H]2C(=O)N[C@@H](CCCCN)C(=O)N[C@@H](CC(=O)O)C(=O)NCCC(=O)N[C@@H](CCCNC(=N)N)C(=O)N[C@@H](CCCCN)C(=O)N[C@@H](CCCNC(=N)N)C(=O)N[C@@H](CCCNC(=N)N)C(=O)N[C@@H](CCCNC(=N)N)C(=O)N[C@@H](CCC(N)=O)C(=O)N[C@@H](CCCNC(=N)N)C(=O)N[C@@H](CCCNC(=N)N)C(=O)N[C@@H](CCCNC(=N)N)C(N)=O)NC(=O)[C@H](C)NC(=O)[C@H](Cc2csc3ccccc23)NC(=O)[C@H](CCCNC(=N)N)NC(=O)[C@@H](Cc2ccc3ccccc3c2)NC(=O)[C@H](Cc2c[nH]cn2)NC(=O)[C@H](CCC(=O)O)NC1=O | – | – | – | – | – | Ki (hMC5-R [6]; Ki hMC5-R, Table 6): 15.5 nM; EC50 (hMC1-R [2]): 19.1 nM; Kb (hMC3-R [3]): 106 nM; Kb (hMC4-R): 4.59 nM; EC50 (hMC5-R [4]): 100 nM |
